Patent US6737383B1, “Herbicidal oxadiazolidines” (priority 1999, dated 2004)

Columns and labels:
bermuda-grass = test: Test D bermudagrass; assay type: in vivo, Cynodon dactylon; conditions: Preemergence, 0 to 100 scale
How it was run: (§1)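 Seeds were sown in greenhouse pots, one species per pot or compartment. Compounds were in a non-phytotoxic solvent mixture with surfactant; preemergence applications went on the sandy loam surface within one day of planting. Injury was rated visually after 14 to 21 days, 0 (none) to 100 (complete control).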

Johnson grass = test: Test D Johnson grass; assay type: in vivo, Sorghum halepense; conditions: Preemergence, 0 to 100 scale
Source text: (§2) Seeds, tubers, or plant parts of Alexandergrass (Brachiaria plantaginea), bermuda-grass (Cynodon dactylon), common pursiane (Portulaca oleracea), common ragweed (Ambrosia elatior), common groundsel (Senecio vulgaris), dallisgrass (Paspalum dilatatum), goosegrass (Eleusine indica), guineagrass (Panicum maximum), itchgrass (Rottboellia exaltata), Johnson grass (Sorghum halepense), large crabgrass (Digitaria sanguinalis), pitted morningglory (Ipomoea lacunosa), purple nutsedge (Cyperus rotundus), sandbur (Cenchrus echinatus), sourgrass (Trichachne insularis), Spanishneedles (Bidens bipinnata), surinam grass (Brachiaria decumbens) and tall mallow (Malva sylvestris) were planted into greenhouse pots of flats containing greenhouse planting medium. Plant species were grown in separate pots or individual compartments. Preemergence applications were made within one day of planting the seed or plant part.
(§3) Test chemicals were formulated in a non-phytotoxic solvent mixture which included a surfactant and applied preemergence to the surface of the pot containing seeds in a sandy loam soil. Untreated control pots and treated pots were placed in the greenhouse for growth and visually evaluated for injury 14 to 21 days after herbicide application. Plant response ratings, summarized in Table C, are based on a 0 to 100 scale where 0 is no injury and 100 is complete control. A dash (−) response means no test result.

pitted morningglory = test: Test D pitted morningglory; assay type: in vivo, Ipomoea lacunosa; conditions: Preemergence, 0 to 100 scale
Source text: as §2
as §3, with “Plant response ratings, summarized in Table C, are based on a 0 to 100 scale where 0 is no injury and 100 is complete control.” left out

common ragweed = test: Test D common ragweed; assay type: in vivo, Ambrosia elatior; conditions: Preemergence, 0 to 100 scale
How it was run: as §1

tall mallow = test: Test D tall mallow; assay type: in vivo, Malva sylvestris; conditions: Preemergence, 0 to 100 scale
Source text: as §2, §3

purple nutsedge = test: Test D purple nutsedge; assay type: in vivo, Cyperus rotundus; conditions: Preemergence, 0 to 100 scale
How it was run: as §1

dallisgrass = test: Test D dallisgrass; assay type: in vivo, Paspalum dilatatum; conditions: Preemergence, 0 to 100 scale
Source text: as §2, §3

guineagrass = test: Test D guineagrass; assay type: in vivo, Panicum maximum; conditions: Preemergence, 0 to 100 scale
Source text: as §2, §3

surinam grass = test: Test D surinam grass; assay type: in vivo, Brachiaria decumbens; conditions: Preemergence, 0 to 100 scale
How it was run: as §1

goosegrass = test: Test D goosegrass; assay type: in vivo, Eleusine indica; conditions: Preemergence, 0 to 100 scale
Source text: as §2, §3

Green foxtail [1] = test: Test D green foxtail; assay type: in vivo; conditions: Preemergence, 0 to 100 scale
How it was run: as §1

Alexandergrass = test: Test D Alexandergrass; assay type: in vivo, Brachiaria plantaginea; conditions: Preemergence, 0 to 100 scale
How it was run: as §1

common pursiane = test: Test D common purslane; assay type: in vivo, Portulaca oleracea; conditions: Preemergence, 0 to 100 scale
Source text: as §2, §3

Green foxtail [2] = test: Test D green foxtail; assay type: in vivo
Source text: as §2, §3

itchgrass = test: Test D itchgrass; assay type: in vivo, Rottboellia exaltata; conditions: Preemergence, 0 to 100 scale
How it was run: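 Scoring used a 0–100 visual injury scale, with 0 meaning no effect and 100 complete control, assessed 14–21 days after application alongside untreated pots. Preemergence treatments went onto sandy loam surfaces of separately potted seeds within a day of sowing.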

large crabgrass = test: Test D large crabgrass; assay type: in vivo, Digitaria sanguinalis; conditions: Preemergence, 0 to 100 scale
How it was run: as §1

[3] = Rate 16 g/ha, 0 no injury, 100 complete control
[4] = Rate 32 g/ha, 0 no injury, 100 complete control
[5] = Rate 64 g/ha, 0 no injury, 100 complete control
[6] = Rate 125 g/ha, 0 no injury, 100 complete control
[7] = Rate 64 g/ha, Preemergence; 0 to 100 scale, 0 no injury, 100 complete control
[8] = Rate 125 g/ha, Preemergence; 0 to 100 scale, 0 no injury, 100 complete control

For `COc1ccccc1-n1c(=O)on(C(=O)N(c2ccc(F)cc2)C(C)C)c1=O` [Compound 30], the “Plant response rating, Bermudagrass” value (bermuda-grass; [3]) was 50, the “Plant response rating, Bermudagrass” value (bermuda-grass; [4]) was 65 and the “Plant response rating, Bermudagrass” value (bermuda-grass; [5]) was 98. For the same compound, the “Plant response rating, Bermudagrass” value (bermuda-grass; [6]) was 98, the “Plant response rating, Bermudagrass” value (bermuda-grass; Rate 250 g/ha) was 98 and the “Plant response rating, Bermudagrass” value (bermuda-grass; Rate 500 g/ha) was 100. For the same compound, the “Plant response rating, Johnsongrass” value (Johnson grass; [3]) was 0, the “Plant response rating, Johnsongrass” value (Johnson grass; [4]) was 0 and the “Plant response rating, Johnsongrass” value (Johnson grass; [5]) was 0. For the same compound, the “Plant response rating, Johnsongrass” value (Johnson grass; [6]) was 0, the “Plant response rating, Johnsongrass” value (Johnson grass; Rate 250 g/ha) was 0 and the “Plant response rating, Johnsongrass” value (Johnson grass; Rate 500 g/ha) was 40. For the same compound, the “Plant response rating, P. morninglory” value (pitted morningglory; [3]) was 0, the “Plant response rating, P. morninglory” value (pitted morningglory; [4]) was 0 and the “Plant response rating, P. morninglory” value (pitted morningglory; [5]) was 0. For the same compound, the “Plant response rating, P. morninglory” value (pitted morningglory; [6]) was 0, the “Plant response rating, P. morninglory” value (pitted morningglory; Rate 250 g/ha) was 0 and the “Plant response rating, P. morninglory” value (pitted morningglory; Rate 500 g/ha) was 0. The “Plant response rating, C. ragweed” value (common ragweed; [3]) was 0, the “Plant response rating, C. ragweed” value (common ragweed; [4]) was 0 and the “Plant response rating, C. ragweed” value (common ragweed; [5]) was 0. For the same compound, the “Plant response rating, C. ragweed” value (common ragweed; [6]) was 0, the “Plant response rating, C. ragweed” value (common ragweed; Rate 250 g/ha) was 0 and the “Plant response rating, C. ragweed” value (common ragweed; Rate 500 g/ha) was 0. The “Plant response rating, Tall Mallow” value (tall mallow; [3]) was 0, the “Plant response rating, Tall Mallow” value (tall mallow; [4]) was 0 and the “Tall Mallow plant response rating” value (tall mallow; [5]) was 0. For the same compound, the “Tall Mallow plant response rating” value (tall mallow; [6]) was 0, the “Plant response rating, Tall Mallow” value (tall mallow; Rate 250 g/ha) was 0 and the “Plant response rating, Tall Mallow” value (tall mallow; Rate 500 g/ha) was 0. For the same compound, the “Plant response rating, Purple nutsedge” value (purple nutsedge; [3]) was 0, the “Plant response rating, Purple nutsedge” value (purple nutsedge; [4]) was 0 and the “Purple nutsedge plant response rating” value (purple nutsedge; [5]) was 0. For the same compound, the “Purple nutsedge plant response rating” value (purple nutsedge; [6]) was 0, the “Plant response rating, Purple nutsedge” value (purple nutsedge; Rate 250 g/ha) was 0 and the “Plant response rating, Purple nutsedge” value (purple nutsedge; Rate 500 g/ha) was 0. For the same compound, the “Plant response rating, Dallisgrass” value (dallisgrass; [3]) was 0, the “Plant response rating, Dallisgrass” value (dallisgrass; [4]) was 0 and the “Plant response rating, Dallisgrass” value (dallisgrass; [5]) was 50. For the same compound, the “Plant response rating, Dallisgrass” value (dallisgrass; [6]) was 60, the “Plant response rating, Dallisgrass” value (dallisgrass; Rate 250 g/ha) was 80 and the “Plant response rating, Dallisgrass” value (dallisgrass; Rate 500 g/ha) was 100. The “Plant response rating, Guineagrass” value (guineagrass; [3]) was 30, the “Plant response rating, Guineagrass” value (guineagrass; [4]) was 30 and the “Plant response rating, Guineagrass” value (guineagrass; [5]) was 40. The “Plant response rating, Guineagrass” value (guineagrass; [6]) was 75, the “Plant response rating, Guineagrass” value (guineagrass; Rate 250 g/ha) was 98 and the “Plant response rating, Guineagrass” value (guineagrass; Rate 500 g/ha) was 98. The “Plant response rating, Surinam grass” value (surinam grass; [4]) was 40, the “Surinam grass plant response rating” value (surinam grass; [5]) was 40 and the “Surinam grass plant response rating” value (surinam grass; [6]) was 40. For the same compound, the “Plant response rating, Surinam grass” value (surinam grass; Rate 250 g/ha) was 85, the “Plant response rating, Surinam grass” value (surinam grass; Rate 500 g/ha) was 85 and the “Plant response rating, Goosegrass” value (goosegrass; [3]) was 30. The “Plant response rating, Goosegrass” value (goosegrass; [4]) was 40, the “Plant response rating, Goosegrass” value (goosegrass; [5]) was 70 and the “Plant response rating, Goosegrass” value (goosegrass; [6]) was 85. For the same compound, the “Plant response rating, Goosegrass” value (goosegrass; Rate 250 g/ha) was 85, the “Plant response rating, Goosegrass” value (goosegrass; Rate 500 g/ha) was 98 and the “Plant response rating, Green foxtail” value (Green foxtail [1]; Rate 250 g/ha) was 100. For the same compound, the “Plant response rating, Green foxtail” value (Green foxtail [1]; Rate 500 g/ha) was 100, the “Plant response rating, Alexandergrass” value (Alexandergrass; [3]) was 0 and the “Plant response rating, Alexandergrass” value (Alexandergrass; [4]) was 0. The “Plant response rating, Alexandergrass” value (Alexandergrass; [5]) was 40, the “Plant response rating, Alexandergrass” value (Alexandergrass; [6]) was 50 and the “Plant response rating, Alexandergrass” value (Alexandergrass; Rate 250 g/ha) was 80. For the same compound, the “Plant response rating, Alexandergrass” value (Alexandergrass; Rate 500 g/ha) was 90, the “Plant response rating, C. purslane” value (common pursiane; [3]) was 0 and the “Plant response rating, C. purslane” value (common pursiane; [4]) was 0. For the same compound, the “Plant response rating, C. purslane” value (common pursiane; [5]) was 0, the “Plant response rating, C. purslane” value (common pursiane; [6]) was 0 and the “Plant response rating, C. purslane” value (common pursiane; Rate 250 g/ha) was 0. For the same compound, the “Plant response rating, C. purslane” value (common pursiane; Rate 500 g/ha) was 0, the “Plant response rating, Green foxtail” value (Green foxtail [2]; Preemergence; Rate 16 g/ha; 0 to 100 scale, 0 no injury, 100 complete control) was 0 and the “Plant response rating, Green foxtail” value (Green foxtail [2]; Preemergence; Rate 32 g/ha; 0 to 100 scale, 0 no injury, 100 complete control) was 50. For the same compound, the “Plant response rating, Green foxtail” value (Green foxtail [2]; Rate 16 g/ha; Preemergence; 0 to 100 scale, 0 no injury, 100 complete control) was 0, the “Green foxtail plant response rating” value (Green foxtail [2]; [7]) was 85 and the “Plant response rating, Green foxtail” value (Green foxtail [2]; [7]) was 85. The “Green foxtail plant response rating” value (Green foxtail [2]; [8]) was 85, the “Plant response rating, Green foxtail” value (Green foxtail [2]; [8]) was 85 and the “Plant response rating, Green foxtail” value (Green foxtail [2]; Rate 250 g/ha; Preemergence; 0 to 100 scale) was 100. For the same compound, the “Plant response rating, Green foxtail” value (Green foxtail [2]; Rate 500 g/ha, Preemergence; 0 to 100 scale) was 100, the “Plant response rating, Itchgrass” value (itchgrass; [3]) was 20 and the “Plant response rating, Itchgrass” value (itchgrass; [4]) was 20. For the same compound, the “Plant response rating, Itchgrass” value (itchgrass; [5]) was 40, the “Plant response rating, Itchgrass” value (itchgrass; [6]) was 75 and the “Plant response rating, Itchgrass” value (itchgrass; Rate 250 g/ha) was 75. For the same compound, the “Plant response rating, Large crabgrass” value (large crabgrass; [3]) was 40, the “Plant response rating, Large crabgrass” value (large crabgrass; [4]) was 40 and the “Plant response rating, Large crabgrass” value (large crabgrass; [5]) was 85. The “Plant response rating, Large crabgrass” value (large crabgrass; [6]) was 98, the “Plant response rating, Large crabgrass” value (large crabgrass; Rate 250 g/ha) was 98 and the “Plant response rating, Large crabgrass” value (large crabgrass; Rate 500 g/ha) was 100.
